# Reference: ChEMBL document CHEMBL1201862, “PubChem BioAssay data set” (2004)
# Active and inactive are the calls of the source.
# What was measured:
# [1] = target: T1, Luciferin 4-monooxygenase (Photinus pyralis, UniProt P08659); assay: firefly luciferase enzyme inhibitors, dose response, biochemical, luminescence (AID 1891)
# [2] = Luminescence Cell-Based Dose Confirmation HTS to Identify Inhibitors of Platelet Dense Granule Release. [Related pubchem assays: 1663 (Primary HTS), 1678 (Summary of Project)]; type: functional
# [3] = target: T1, Luciferin 4-monooxygenase; assay: Counter Screen for Luciferase-based Assay Positives. [Related pubchem assays: 620, 618, 411 ]
# HT-1080 = assay: cytotoxicity in HT1080 fibrosarcoma cells, cell-based, fluorescence readout (AID 620); type: functional; conditions: Homo sapiens
# [4] = target: Alkaline phosphatase, placental type (Homo sapiens, UniProt P05187); assay: PLAP enzyme inhibitors, confirmation, biochemical, luminescence (AID 1512); type: functional
# [5] = target: DNA dC->dU-editing enzyme APOBEC-3G (Homo sapiens, UniProt Q9HC16); type: functional;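 further: Dose-response counterscreen measuring inhibition of APOBEC3G DNA deaminase activity, run while confirming APOBEC3A inhibitors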
# Sequence of DNA dC->dU-editing enzyme APOBEC-3G (Q9HC16 whole entry): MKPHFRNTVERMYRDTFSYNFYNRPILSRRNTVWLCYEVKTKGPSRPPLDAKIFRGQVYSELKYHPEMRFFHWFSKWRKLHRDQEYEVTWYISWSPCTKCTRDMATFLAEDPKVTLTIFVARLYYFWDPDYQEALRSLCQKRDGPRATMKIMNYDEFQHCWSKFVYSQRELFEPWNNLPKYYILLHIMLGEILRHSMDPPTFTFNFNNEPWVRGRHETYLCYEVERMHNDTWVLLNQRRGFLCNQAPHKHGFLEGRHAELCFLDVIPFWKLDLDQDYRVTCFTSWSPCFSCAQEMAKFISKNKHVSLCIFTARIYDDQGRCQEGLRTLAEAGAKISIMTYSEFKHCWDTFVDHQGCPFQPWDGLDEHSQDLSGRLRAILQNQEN
# [6] = target: DNA dC->dU-editing enzyme APOBEC-3A (Homo sapiens, UniProt P31941); assay: Dose Response confirmation of small molecule APOBEC3A DNA Deaminase Inhibitors via a fluorescence-based single-stranded DNA deaminase assay. [Related pubchem assays (depositor defined):AID493011, AID493024]; type: functional
# Sequence of DNA dC->dU-editing enzyme APOBEC-3A (P31941 whole entry): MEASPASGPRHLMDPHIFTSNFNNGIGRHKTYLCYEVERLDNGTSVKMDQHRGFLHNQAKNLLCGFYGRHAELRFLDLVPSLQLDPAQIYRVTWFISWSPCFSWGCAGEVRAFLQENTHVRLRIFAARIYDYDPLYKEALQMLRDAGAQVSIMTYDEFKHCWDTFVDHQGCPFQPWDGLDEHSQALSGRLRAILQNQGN
# Streptokinase A = target: T2, Streptokinase A (Streptococcus pyogenes serotype M1, UniProt P10520); assay: S. pyogenes streptokinase expression inhibitors, potency, dose response, plasminogen activation absorbance, OD405 (AID 1914); type: functional, Streptococcus pyogenes M1 GAS;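 further: secreted streptokinase activity via plasminogen activation per viability signal from cell pellet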
# T2 sequence (P10520 whole entry): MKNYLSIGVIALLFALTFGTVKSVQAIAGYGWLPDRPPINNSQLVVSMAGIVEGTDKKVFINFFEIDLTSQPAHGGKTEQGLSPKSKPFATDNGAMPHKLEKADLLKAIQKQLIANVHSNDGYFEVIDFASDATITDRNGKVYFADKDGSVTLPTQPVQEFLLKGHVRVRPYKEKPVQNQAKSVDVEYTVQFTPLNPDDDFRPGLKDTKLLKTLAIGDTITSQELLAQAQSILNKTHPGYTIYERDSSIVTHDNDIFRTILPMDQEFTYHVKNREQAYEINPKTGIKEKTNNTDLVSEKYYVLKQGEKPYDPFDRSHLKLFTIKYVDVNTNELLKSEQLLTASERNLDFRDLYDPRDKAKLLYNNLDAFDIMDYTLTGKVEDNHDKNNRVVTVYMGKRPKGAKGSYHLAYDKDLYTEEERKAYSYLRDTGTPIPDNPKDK
# [7] = Vero E6 cell cytotoxicity, dose response, cytotoxicity control for non-replicating M. tuberculosis project, secondary assay (AID 492998); type: functional, VeroE6; conditions: Vero C1008
# [8] = test system: Streptococcus sp. 'group A'; assay: growth inhibition of control SK(-) GAS strain, dose response, counter-screen for streptokinase expression inhibitor project, luminescence, kanamycin, BacTiterGlo, confirmation (AID 1900); type: functional, organism-based
# Streptococcus = assay: Group A Streptococcus viability loss, dose response, counter-screen for streptokinase expression inhibitor project, luminescence, BacTiterGlo (AID 1915); type: functional, organism-based;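 further: potency for reduction of bacterial viability or growth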
# [9] = HepG2 cell cytotoxicity, dose response, cytotoxicity control for non-replicating M. tuberculosis project (AID 489018); type: functional; conditions: Mycobacterium tuberculosis
# cells = type: functional
# INS1 = assay: beta cell apoptosis inhibitors, cytokine rescue, dose response, luminescence, retest (AID 449756); type: functional, cell-based; conditions: Rattus norvegicus;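 further: cell death triggered by IL-1 beta plus TNF-alpha plus IFN-gamma mixture; protective hits raise ATP signal compared with cytokine alone wells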
# [10] = THP-1 cell cytotoxicity, dose response, cytotoxicity control for non-replicating M. tuberculosis project (AID 489025); type: functional
# Nonstructural protein 1 = Nonstructural protein 1 (Influenza A virus, UniProt Q194T2); type: functional, Influenza A virus (A/California/07/2009(H1N1))
# Sequence of Nonstructural protein 1 (Q194T2 whole entry): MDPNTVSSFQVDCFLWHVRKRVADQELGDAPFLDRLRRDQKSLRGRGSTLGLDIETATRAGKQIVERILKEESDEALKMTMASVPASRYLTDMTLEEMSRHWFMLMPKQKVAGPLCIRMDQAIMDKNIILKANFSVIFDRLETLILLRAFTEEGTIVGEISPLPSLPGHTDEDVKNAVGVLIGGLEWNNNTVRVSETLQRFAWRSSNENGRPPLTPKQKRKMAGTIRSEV
# [11] = microbe, parasite or virus in culture; type: functional; conditions: Mycobacterium tuberculosis
# [12] = target: NACHT, LRR and PYD domains-containing protein 3 (Homo sapiens, UniProt Q96P20); assay: NALP3 inhibitors in yeast, dose response, luminescent (AID 488799); type: functional
# Sequence of NACHT, LRR and PYD domains-containing protein 3 (Q96P20 whole entry, the tested form may be a part): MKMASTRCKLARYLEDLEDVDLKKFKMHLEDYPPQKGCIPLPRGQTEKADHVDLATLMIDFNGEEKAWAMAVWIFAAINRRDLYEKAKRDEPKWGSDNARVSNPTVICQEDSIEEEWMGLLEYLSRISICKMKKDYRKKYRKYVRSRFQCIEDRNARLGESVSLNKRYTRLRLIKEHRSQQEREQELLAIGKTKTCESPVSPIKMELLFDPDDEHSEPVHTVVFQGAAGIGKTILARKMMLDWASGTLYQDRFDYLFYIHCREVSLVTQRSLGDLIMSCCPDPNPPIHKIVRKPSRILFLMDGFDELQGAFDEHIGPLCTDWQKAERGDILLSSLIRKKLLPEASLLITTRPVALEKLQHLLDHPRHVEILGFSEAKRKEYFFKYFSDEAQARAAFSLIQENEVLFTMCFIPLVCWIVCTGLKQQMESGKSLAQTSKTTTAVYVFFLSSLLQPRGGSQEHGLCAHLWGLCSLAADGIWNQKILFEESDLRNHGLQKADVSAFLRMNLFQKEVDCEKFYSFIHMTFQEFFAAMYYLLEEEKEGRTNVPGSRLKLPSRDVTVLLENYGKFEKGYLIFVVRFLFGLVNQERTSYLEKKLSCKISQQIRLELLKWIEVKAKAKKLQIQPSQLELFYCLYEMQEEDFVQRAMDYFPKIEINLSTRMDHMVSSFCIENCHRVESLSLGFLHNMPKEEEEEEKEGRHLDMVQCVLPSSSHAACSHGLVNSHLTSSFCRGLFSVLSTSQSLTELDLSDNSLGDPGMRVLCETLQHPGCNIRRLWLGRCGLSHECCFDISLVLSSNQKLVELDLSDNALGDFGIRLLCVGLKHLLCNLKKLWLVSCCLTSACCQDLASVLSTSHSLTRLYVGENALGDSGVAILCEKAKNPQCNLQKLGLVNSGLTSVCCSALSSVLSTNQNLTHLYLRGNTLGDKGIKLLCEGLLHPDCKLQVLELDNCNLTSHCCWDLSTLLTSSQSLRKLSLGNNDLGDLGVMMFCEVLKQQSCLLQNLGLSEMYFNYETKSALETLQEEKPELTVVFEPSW
# [13] = target: Eukaryotic translation initiation factor 4H (Homo sapiens, UniProt Q15056); assay: eIF4H inhibition in translation initiation, SAR follow-up (AID 435011); type: functional
# [14] = target: Polyadenylate-binding protein 1 (Homo sapiens, UniProt P11940); assay: PABP inhibition in translation initiation, SAR follow-up (AID 435018); type: functional
# Sequence of Polyadenylate-binding protein 1 (P11940 whole entry): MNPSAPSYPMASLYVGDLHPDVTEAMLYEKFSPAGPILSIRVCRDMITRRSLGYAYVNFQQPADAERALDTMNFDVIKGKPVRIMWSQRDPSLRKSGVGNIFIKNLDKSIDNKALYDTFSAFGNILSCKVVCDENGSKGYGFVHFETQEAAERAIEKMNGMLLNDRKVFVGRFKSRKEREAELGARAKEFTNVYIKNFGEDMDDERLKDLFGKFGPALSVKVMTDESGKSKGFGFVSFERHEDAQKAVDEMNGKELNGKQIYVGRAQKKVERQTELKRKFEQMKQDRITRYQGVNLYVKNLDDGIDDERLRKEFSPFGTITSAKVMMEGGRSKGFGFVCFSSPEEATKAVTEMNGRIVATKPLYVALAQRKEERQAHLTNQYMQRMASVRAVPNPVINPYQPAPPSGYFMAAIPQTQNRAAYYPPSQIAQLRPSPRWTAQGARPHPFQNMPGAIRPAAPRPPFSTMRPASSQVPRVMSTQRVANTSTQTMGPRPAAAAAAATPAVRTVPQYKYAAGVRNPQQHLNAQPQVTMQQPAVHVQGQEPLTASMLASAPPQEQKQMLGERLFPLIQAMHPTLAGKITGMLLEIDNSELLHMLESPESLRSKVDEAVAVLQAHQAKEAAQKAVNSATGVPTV
# Cytochrome P450 1A2 = target: T3, Cytochrome P450 1A2 (Homo sapiens, UniProt P05177);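 further: PubChem cytochrome P450 panel assay, CYP1A2 panel member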
# T3 sequence (P05177 whole entry): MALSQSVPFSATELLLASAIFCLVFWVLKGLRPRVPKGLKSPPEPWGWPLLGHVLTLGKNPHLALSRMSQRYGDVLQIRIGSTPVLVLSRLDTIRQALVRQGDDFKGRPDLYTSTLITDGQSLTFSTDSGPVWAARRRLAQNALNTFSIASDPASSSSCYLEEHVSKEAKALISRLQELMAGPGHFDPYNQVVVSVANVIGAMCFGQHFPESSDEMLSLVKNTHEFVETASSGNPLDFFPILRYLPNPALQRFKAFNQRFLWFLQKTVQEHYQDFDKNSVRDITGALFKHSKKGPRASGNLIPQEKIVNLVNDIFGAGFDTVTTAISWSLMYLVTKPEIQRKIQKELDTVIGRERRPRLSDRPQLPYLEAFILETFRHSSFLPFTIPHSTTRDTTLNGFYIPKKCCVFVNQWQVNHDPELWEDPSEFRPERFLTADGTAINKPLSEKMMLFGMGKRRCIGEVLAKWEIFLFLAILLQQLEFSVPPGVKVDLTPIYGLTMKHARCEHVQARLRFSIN
# Cytochrome P450 2C9 = Cytochrome P450 2C9 (Homo sapiens, UniProt P11712)
# Sequence of Cytochrome P450 2C9 (P11712 whole entry): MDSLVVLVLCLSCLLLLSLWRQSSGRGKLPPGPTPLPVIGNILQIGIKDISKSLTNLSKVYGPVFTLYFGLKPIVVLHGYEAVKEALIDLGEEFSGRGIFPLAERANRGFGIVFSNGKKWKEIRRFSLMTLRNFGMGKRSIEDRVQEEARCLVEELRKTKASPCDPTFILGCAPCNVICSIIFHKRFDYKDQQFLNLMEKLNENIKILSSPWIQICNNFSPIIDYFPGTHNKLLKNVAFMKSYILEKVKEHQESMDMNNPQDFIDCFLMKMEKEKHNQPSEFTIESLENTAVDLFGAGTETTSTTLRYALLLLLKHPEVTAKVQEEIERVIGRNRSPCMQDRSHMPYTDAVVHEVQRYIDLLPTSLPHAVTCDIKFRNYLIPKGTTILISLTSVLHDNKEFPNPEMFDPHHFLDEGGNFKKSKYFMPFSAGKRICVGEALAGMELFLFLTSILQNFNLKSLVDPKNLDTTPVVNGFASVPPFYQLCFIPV
# [15] = target: Neurotensin receptor type 1 (Homo sapiens, UniProt P30989); type: functional;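 further: Image-based confirmatory dose-response assay measuring agonist activity at NTR1; NTR1-expressing U2OS osteosarcoma cells imaged for beta-arrestin GFP spot formation; agonist potency where compounds increase beta-arrestin recruitment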
# Sequence of Neurotensin receptor type 1 (P30989 whole entry): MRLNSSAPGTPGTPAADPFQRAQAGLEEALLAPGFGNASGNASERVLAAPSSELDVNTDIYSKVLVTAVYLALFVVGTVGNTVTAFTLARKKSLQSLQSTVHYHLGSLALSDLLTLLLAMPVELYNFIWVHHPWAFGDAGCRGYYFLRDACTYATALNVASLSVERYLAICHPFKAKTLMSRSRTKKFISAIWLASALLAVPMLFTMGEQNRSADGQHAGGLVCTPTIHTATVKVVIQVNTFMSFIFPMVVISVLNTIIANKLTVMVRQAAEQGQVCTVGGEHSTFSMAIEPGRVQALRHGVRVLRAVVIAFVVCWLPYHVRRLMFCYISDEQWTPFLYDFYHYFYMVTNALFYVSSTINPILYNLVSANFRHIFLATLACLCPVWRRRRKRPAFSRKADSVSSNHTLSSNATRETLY
# Cytochrome P450 2C19 = Cytochrome P450 2C19 (Homo sapiens, UniProt P33261); assay: Cytochrome panel assay with activity outcomes. Panel member name: p450-cyp2c19 Compounds with AC50 equal or less than 10 uM are considered active; type: functional; conditions: read-out: AC50
# Sequence of Cytochrome P450 2C19 (P33261 whole entry): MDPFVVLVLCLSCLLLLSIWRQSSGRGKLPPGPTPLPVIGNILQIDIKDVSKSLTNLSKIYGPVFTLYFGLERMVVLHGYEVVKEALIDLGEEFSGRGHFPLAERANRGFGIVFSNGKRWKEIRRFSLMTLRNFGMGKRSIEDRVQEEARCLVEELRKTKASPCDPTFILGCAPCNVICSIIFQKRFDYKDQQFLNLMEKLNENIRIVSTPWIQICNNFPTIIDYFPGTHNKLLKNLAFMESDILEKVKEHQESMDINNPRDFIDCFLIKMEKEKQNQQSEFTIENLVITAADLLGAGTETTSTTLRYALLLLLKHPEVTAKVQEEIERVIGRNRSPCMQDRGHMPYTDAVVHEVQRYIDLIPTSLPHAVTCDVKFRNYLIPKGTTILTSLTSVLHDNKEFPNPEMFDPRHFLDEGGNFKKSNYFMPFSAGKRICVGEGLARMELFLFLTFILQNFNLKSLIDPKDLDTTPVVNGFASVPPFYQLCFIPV
# T1 sequence (P08659 whole entry): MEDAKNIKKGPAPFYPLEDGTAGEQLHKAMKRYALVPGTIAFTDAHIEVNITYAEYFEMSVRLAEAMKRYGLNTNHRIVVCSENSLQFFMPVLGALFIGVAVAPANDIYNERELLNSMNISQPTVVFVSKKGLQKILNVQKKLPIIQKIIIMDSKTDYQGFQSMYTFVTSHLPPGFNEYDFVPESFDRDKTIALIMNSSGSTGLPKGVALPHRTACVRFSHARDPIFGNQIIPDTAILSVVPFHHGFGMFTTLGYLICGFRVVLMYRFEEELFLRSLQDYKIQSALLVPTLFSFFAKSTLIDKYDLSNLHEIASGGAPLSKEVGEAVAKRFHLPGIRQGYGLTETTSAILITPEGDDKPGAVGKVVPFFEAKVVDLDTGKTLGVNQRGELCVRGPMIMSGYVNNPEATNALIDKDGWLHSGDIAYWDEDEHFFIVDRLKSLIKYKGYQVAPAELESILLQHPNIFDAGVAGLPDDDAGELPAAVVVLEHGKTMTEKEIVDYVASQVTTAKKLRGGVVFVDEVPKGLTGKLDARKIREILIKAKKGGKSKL
compound,measurement,setting,value
COc1ccc(C(=O)/C=C/Nc2cccc(O)c2)cc1,EC50,[1],0.793 µM (active)
same,EC50,[2],5.26 µM (active)
same,EC50,[3],0.25 µM (active)
same,EC50,HT-1080,> 50 µM (not active)
Cc1ccc(OCc2nc(-c3ccccn3)no2)c(Br)c1,EC50,[3],< 0.2 µM (active)
same,EC50,HT-1080,> 50 µM (not active)
CCN(CC(=O)Nc1cccc(F)c1)Cc1nc(O)c2ccccc2n1,IC50,[4],> 100 µM (inactive)
C=CCNC1=N[C@@H](c2ccccc2)C(C(=O)OC)=C(C)N1CCOC,IC50,[5],6.15 µM (active)
same,IC50,[6],4.03 µM (active)
COc1ccccc1/C=N\Nc1cc(C)nc(-n2nc(C)cc2C)n1,EC50,Streptokinase A,> 150 µM (not active)
same,CC50,[7],7.06 µM (active)
same,EC50,[8],7.45 µM (active)
same,EC50,Streptococcus,16.1 µM (active)
same,CC50,[9],18.3 µM (active)
same,IC50,cells,< 0.1 µM (active)
same,AC50,INS1,2.92 µM (active)
same,CC50,[10],5.71 µM (active)
C=CCc1c(C)nc(C)nc1N/N=C/c1ccccc1O,IC50,Nonstructural protein 1,18.4 µM (active)
same,CC50,[11],> 40 µM (active)
same,IC50,[12],45.5 µM (active)
Cc1ccc(C)c(NC(=O)C2CCN(C(=O)c3cccs3)CC2)c1,IC50,[13],> 100 µM (inactive)
same,IC50,[14],> 100 µM (inactive)
COc1cc([N+](=O)[O-])ccc1NC(=O)COC(=O)c1ccc(N2CCCC2=O)cc1,IC50,[13],> 100 µM (inactive)
same,IC50,[14],> 100 µM (inactive)
Cc1cccc(N2C(=O)NC(=O)/C(=C\c3cnn(-c4ccccc4)c3)C2=O)c1,AC50,Cytochrome P450 1A2,25.1 µM (inconclusive)
same,AC50,Cytochrome P450 2C9,39.8 µM (inconclusive)
same,EC50,[15],13 µM (active)
same,AC50,Cytochrome P450 2C19,39.8 µM (inconclusive)
